From the METLIN SMRT retention time set (Domingo-Almenara et al. 2019)

Assay: gradient 5% acetonitrile 3 min, to 50% in 2 min, to 85% in 15 min, held 3 min, 100 µL/min
Conditions: column: Zorbax Extend-C18 2.1 x 50 mm; eluents: water / acetonitrile, 0.1% formic acid
How it was run: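 Retention times come from adduct peaks that were picked computationally and then checked by hand. The standards, pure and pooled in mixtures of ~100 molecules, were run on a Zorbax Extend-C18 column (2.1 × 50 mm, 1.8 μm) at 100 μL/min with water and acetonitrile, each with 0.1% formic acid. Detection was by quadrupole time-of-flight mass spectrometry in positive and negative ionization mode, with a dead volume of 40 μL and a dwell volume of 900 μL.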

SMILES	RP-LC retention time
C=CCNC(=O)c1cnn(-c2ccc(-c3nc(C(C)(C)C)no3)cn2)c1C	759 s
CCn1ccc2ccc(CCC(=O)N3CCN(c4ccc(F)cc4)CC3)cc21	1030 s
O=C(CN1CCC(c2nc(-c3ccc(F)cc3)no2)CC1)NC1CCCC1	678 s
Cc1cc(C)cc(-c2nnc(Cc3nc(-c4ccccc4F)no3)o2)c1	1080 s
Cc1oc2ccn(Cc3ccccc3F)c(=O)c2c1C(=O)NC(C)c1ccccc1 (stereo not given)	1150 s
O=C(Cc1cccs1)NCc1nnnn1-c1ccc(F)c(F)c1	711 s
Cc1cc(N2CCN(C)CC2)nc2ccc(NC(=O)Nc3ccccc3Cl)cc12	604 s
CCCn1cc(CCNS(=O)(=O)Cc2cc(C)ccc2C)c2cccnc21	946 s
CCC(C)NC(=O)c1c2c(cn(-c3ccc(C)cc3)c1=O)C(=O)CC(C)(C)C2 (stereo not given)	1000 s
CCc1ccccc1NC(=O)Cn1cnc2nc(N3CCCC(C(=O)NC(C)C)C3)sc2c1=O (stereo not given)	759 s
Cn1cc(C2c3ccccc3C(=O)N2CC(N)=O)c2ccccc21 (stereo not given)	696 s
COCc1nc(C2CCN(C(=O)NCC(C)C)C2)no1 (stereo not given)	636 s
Cc1ccc2c(c1)N(S(C)(=O)=O)CCC(C(=O)Nc1ccc(C(C)C)cc1)O2 (stereo not given)	1130 s
Cn1ncc2c3ccccc3n(CCCC(=O)NCCc3cccs3)c2c1=O	834 s
O=C(Cn1nc(C2CC2)cc1C(=O)N1CCCC1)NCc1cccc(Cl)c1	782 s
CCOC(=O)C1CCN(S(=O)(=O)c2cc3n(c2)CCCN(CC)C3=O)CC1	679 s
Cc1cc(NC(=O)C2CCCN(c3nccnc3Oc3ccccc3)C2)ccc1Br (stereo not given)	989 s
COCCn1cc(C(=O)Nc2ccc(C(C)=O)cc2)c2nn(-c3ccccc3)c(=O)c-2c1	865 s
Cc1nn2c(CNS(=O)(=O)Cc3cccc(Cl)c3)c(-c3ccccc3)nc2s1	978 s
Cc1cccc(NC(=O)NCC2CCOCC2)c1C	704 s
COc1ccc(C(=O)NCCC(O)C(C)(C)C)cc1 (stereo not given)	688 s
CCCN1CCN(CCCNC(=O)C2CCN(Cc3cn(C)c4ccc(OC)cc34)CC2)CC1	533 s
O=C(NCc1ccc2c(c1)CCCN2C(=O)C1CCC1)c1cc(F)ccc1Cl	884 s

SMILES	RP-LC retention time
Cc1ccc(C)c(Cn2nc(-c3nc(C)no3)ccc2=O)c1	916 s
O=C(NC1CC1)C1CCN(c2ncccc2-c2nc(-c3ccc(Cl)cc3)no2)CC1	970 s
CCc1cc(C(=O)NCCN2CCOCC2)nc2cc(-c3ccccn3)nn12	592 s
O=C(Cn1cnc2ccccc2c1=O)NC1CC1	596 s
Cc1cccc(NC(=O)N2[C@H]3CC[C@@H]2c2cnc(C)nc2C3)c1	663 s
O=C1N=C(N2CCN(Cc3ccc(F)cc3)CC2)S/C1=C\c1cccc(O)c1	585 s
COC(=O)c1c(C)[nH]c(C(=O)N2CCC(CC(=O)N3CCOCC3)CC2)c1C	636 s
CCCN(CCC)C1COc2cccc(OC)c2C1 (stereo not given)	722 s
CC(C)NC(=O)N1CCc2c(c(-c3nc(Cc4ccccc4)no3)nn2C)C1	748 s
CCN(CC)S(=O)(=O)c1ccc2c(c1)N(CC(=O)NCCN(C)C)C(=O)C1CCCCN21 (stereo not given)	633 s
Cc1ccc(-c2cn3c(n2)N(C(=O)C2CCCO2)CCC3)cc1 (stereo not given)	635 s
CCCN(C)C(=O)c1ccc(-c2nnc3ccc(NC(=O)C4CCC4)cn23)cc1	760 s
CCN1CCN(c2nc(F)c3c(c2F)S(=O)(=O)CCN3Cc2ccccc2)CC1	682 s
Cc1ccc(N2CCN(c3nccn4c(=O)n(CC(=O)Nc5ccc(C)c(C)c5)nc34)CC2)cc1	1000 s
CC(C)n1cc(CN2CC(F)(F)C[C@H]2COc2cccnc2)c2ccccc21	698 s
CCCn1cc(C2=CCN(S(=O)(=O)c3cccc(Cl)c3)CC2)c2cccnc21	1110 s
COc1ccccc1C(=O)N1CC(Oc2ccc(-c3nc(-c4ccccc4)no3)cc2)C1	1160 s
COc1ccc(F)cc1S(=O)(=O)N1C[C@@H]2C[C@H]1C[C@@H]2NC(=O)c1cccs1	834 s
Cc1ccc(-c2[nH]ncc2CN2C[C@@H](CO)[C@H](c3ccncc3)C2)cc1	604 s
CC(=O)c1ccc(NC(=O)c2cccc(N3C(=O)NC4CC3(C)Oc3ccccc34)c2)cc1 (stereo not given)	815 s
Cc1nc(-c2ccc(S(=O)(=O)N3CCN(c4ccc(N5CCOCC5)nn4)CC3)cc2)co1	644 s
N#Cc1ccc(CN2C[C@@H](CO)[C@H](c3ccccn3)C2)cc1	569 s
